The subject of experiment [1] is Aerobic, mesophilic bacteria. The class given is cell-based.
Experiment [2] concerns L. monocytogenes. The experiment is classed as cell-based, Listeria monocytogenes.
The subject of experiment [3] is Salmonella spp. The experiment is classed as cell-based.
For experiment [4], the system named is E. coli O157:H7. The class given is cell-based, Escherichia coli O157:H7.
The subject of experiment [5] is L. monocytogenes. The class given is cell-based, Listeria monocytogenes. This is another data set of the same source.
For experiment [6], the system named is E. coli O157:H7. The class given is cell-based, Escherichia coli O157:H7. The source holds these as a separate data set.
Experiment [7] relates to Salmonella spp. The class given is cell-based. The source holds these as a separate data set.
Experiment [8] relates to Aerobic mesophilic bacteria.
In experiment [9] the test system is Aerobic mesophilic bacteria. This is another data set of the same source.

These results are taken from US20160302455A1, “Methods Of Producing An Antimicrobial Solution And Methods For Reducing Bacteria On Produce And/Or Minimizing Enzymatic Browning Of Produce” (priority 2015, published 2016).

Read-outs that look alike come from different tables or passages of the source. Ends that are not written are not given here.

Take `O=C(O)CC(O)(CC(=O)O)C(=O)O` [Citric Acid (10 mM), Citric acid]: the “Log reduction of aerobes on cantaloupe rind surface” value (“Log reduction of aerobes” for short) in experiment [1] is listed as “(1.2) log”. For the same compound, in the experiment on L. monocytogenes [2], the “Log reduction of L. monocytogenes on cantaloupe rind surface” value (shortened to “Log reduction of L. monocytogenes”) is listed as “(2.0) log”. The “Log reduction of Salmonella spp on cantaloupe rind surface” value (“Log reduction of Salmonella spp” for short) in the experiment with Salmonella spp. [3] is reported as “(1.8) log”. For the same compound, the “Log reduction of E. coli O157:H7 on cantaloupe rind surface” value (from here on “Log reduction of E. coli O157:H7”) in the experiment on E. coli O157:H7 [4] is “(1.5) log”.
Take `O=C(O)CN(CCN(CC(=O)O)CC(=O)O)CC(=O)O` [EDTA (0.02 M), ethylenediaminetetraacetic acid]: in experiment [1], the “Log reduction of aerobes” value was “(0.4) log”. In the experiment on L. monocytogenes [2], the “Log reduction of L. monocytogenes” value is on record as “(0.2) log”. Further, the “Log reduction of Salmonella spp” value in the experiment with Salmonella spp. [3] is “(0.4) log”. Further, the “Log reduction of E. coli O157:H7” value in the experiment on E. coli O157:H7 [4] was “(0.3) log”.
With `C/C=C/C=C/C(=O)O` [Sorbic acid (0.03%), Sorbic acid], the “Log reduction of aerobes” value in experiment [1] is reported as “(1.1) log”. Further, the “Log reduction of L. monocytogenes” value in the experiment with L. monocytogenes [2] is listed as “(2.2) log”. Moreover, the “Log reduction of Salmonella spp” value in the experiment on Salmonella spp. [3] was “(2.0) log”. Also, the “Log reduction of E. coli O157:H7” value in the experiment with E. coli O157:H7 [4] is reported as “(1.8) log”.
Take `OO` [hydrogen peroxide]: the “Average population of L. monocytogenes inactivated” value with L. monocytogenes [5] was 5.0 log. Moreover, the “Average population of E. coli O157:H7 inactivated” value in the experiment on E. coli O157:H7 [6] is 5.5 log. Also, in the experiment on Salmonella spp. [7], the “Average population of Salmonella inactivated” value is 5.1 log. The “Log reduction of aerobes” value in [1] is “(2.0) log”. For the same compound, the figures for the “Population of aerobic mesophilic bacteria, fresh-cut” value in experiment [1], in experiment [8] and in experiment [9] were 1.9 ± 0.10C Log10 CFU/g, 0.5 ± 0.10D Log10 CFU/g and 0.3 ± 0.02D Log10 CFU/g, respectively. Also, the “Log reduction of L. monocytogenes” value with L. monocytogenes [2] is recorded as “(3.4) log”. Also, the “Log reduction of Salmonella spp” value in the experiment on Salmonella spp. [3] is “(3.0) log”. Besides, the “Log reduction of E. coli O157:H7” value with E. coli O157:H7 [4] is “(2.9) log”.
Sodium Lactate [Sodium Lactate (2%)]: the “Log reduction of aerobes” value in [1] was “(1.1) log”. Moreover, the “Log reduction of L. monocytogenes” value in the experiment on L. monocytogenes [2] is given as “(2.8) log”. Besides, the “Log reduction of Salmonella spp” value in the experiment with Salmonella spp. [3] is reported as “(1.5) log”. In the experiment on E. coli O157:H7 [4], the “Log reduction of E. coli O157:H7” value is recorded as “(1.4) log”.
In the case of “nisin (ITSISLCTPGCKTGALMGCNMKTATCHCSIHVSK; not fully specified (some residues, bridges); cysteine pairing not given here; UniProt P13068 24-57, looked up) [Nisin (30 mg; (~10 μg/ml)]”, the “Log reduction of aerobes” value in experiment [1] is “(1.2) log”. Moreover, in the experiment on L. monocytogenes [2], the “Log reduction of L. monocytogenes” value is on record as “(3.6) log”.
